These results are taken from US20250092088A1, “PEPTIDE COMPOUND PRODUCTION METHOD” (CHUBU UNIVERSITY EDUCATIONAL FOUNDATION, priority 2022, published 2025).

This data set can be described thus: TLC analysis of H-Ala-O-PG to evaluate polarity reduction by protecting groups. Format: physicochemical. To be noted: hexane/ethyl acetate=2/1, L-Ala with terminal carboxyl protected by PG (H-Ala-O-PG). From the text: As protecting groups for the terminal carboxyl groups of amino acid/peptide compounds, the silicon-containing hydrophobic substituents TAG1(Si), TAG2(Si), and TAG3(Si) synthesized in Examples 1 to 3, the conventionally known protecting group tBu group, and the previously mentioned TAGa group (alkoxybenzyl ester group) represented by the following formula, which is described in Non-Patent Literature 6 (Org. Process Res. Dev. 2019, Vol. 23, p. 2576-2581), were used to protect the terminal carboxyl of an amino acid (L-Ala), and their effects on polarity reduction were evaluated.

`C[C@H](N)C(=O)OC(C)(C)C` [tBu, reference compound] returned a Rf value of 0.07.
